Reference: ChEMBL document CHEMBL3431459, “Roche carnitine palmitoyltransferase modulator screening data (supplementary data associated with the publication CHEMBL2216752)”
≈ marks a conversion by molar mass, not a printed value.

Legend:
[1] = target: T1, Carnitine O-palmitoyltransferase 1, muscle isoform (Homo sapiens, UniProt Q92523); test: SUPPLEMENTARY: Inhibition of Carnitine palmitoyltransferase 1, muscle isoform; set-up: species or system Muscle tissue
T1 sequence (Q92523 whole entry): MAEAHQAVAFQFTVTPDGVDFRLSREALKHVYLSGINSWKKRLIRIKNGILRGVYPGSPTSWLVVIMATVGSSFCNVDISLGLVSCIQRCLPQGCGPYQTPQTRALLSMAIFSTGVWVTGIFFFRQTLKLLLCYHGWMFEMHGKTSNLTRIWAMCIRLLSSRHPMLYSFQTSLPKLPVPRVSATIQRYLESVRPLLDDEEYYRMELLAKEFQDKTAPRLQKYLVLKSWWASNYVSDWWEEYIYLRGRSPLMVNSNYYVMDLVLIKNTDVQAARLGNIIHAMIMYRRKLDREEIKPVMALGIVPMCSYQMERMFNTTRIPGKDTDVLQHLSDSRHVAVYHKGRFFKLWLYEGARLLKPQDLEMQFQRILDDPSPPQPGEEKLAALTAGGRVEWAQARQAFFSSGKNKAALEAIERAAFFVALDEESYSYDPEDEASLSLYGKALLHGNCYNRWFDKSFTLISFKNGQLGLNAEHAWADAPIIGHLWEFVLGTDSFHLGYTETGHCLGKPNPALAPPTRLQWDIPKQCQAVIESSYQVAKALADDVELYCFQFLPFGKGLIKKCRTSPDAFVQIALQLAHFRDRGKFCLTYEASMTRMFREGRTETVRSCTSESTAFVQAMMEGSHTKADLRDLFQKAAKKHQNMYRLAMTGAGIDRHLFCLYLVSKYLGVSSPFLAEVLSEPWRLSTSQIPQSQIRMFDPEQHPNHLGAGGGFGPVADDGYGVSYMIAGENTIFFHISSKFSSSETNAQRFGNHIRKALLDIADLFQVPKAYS

[2] = SUPPLEMENTARY: Lipophilicity (log D) Determination by high-throughput shake-flask; format: physicochemical; conditions: octanol/water
[3] = target: T2, Carnitine O-palmitoyltransferase 2, mitochondrial (Homo sapiens, UniProt P23786); test: (§1) SUPPLEMENTARY: Inhibition of Carnitine palmitoyltransferase 2
T2 sequence (P23786 whole entry): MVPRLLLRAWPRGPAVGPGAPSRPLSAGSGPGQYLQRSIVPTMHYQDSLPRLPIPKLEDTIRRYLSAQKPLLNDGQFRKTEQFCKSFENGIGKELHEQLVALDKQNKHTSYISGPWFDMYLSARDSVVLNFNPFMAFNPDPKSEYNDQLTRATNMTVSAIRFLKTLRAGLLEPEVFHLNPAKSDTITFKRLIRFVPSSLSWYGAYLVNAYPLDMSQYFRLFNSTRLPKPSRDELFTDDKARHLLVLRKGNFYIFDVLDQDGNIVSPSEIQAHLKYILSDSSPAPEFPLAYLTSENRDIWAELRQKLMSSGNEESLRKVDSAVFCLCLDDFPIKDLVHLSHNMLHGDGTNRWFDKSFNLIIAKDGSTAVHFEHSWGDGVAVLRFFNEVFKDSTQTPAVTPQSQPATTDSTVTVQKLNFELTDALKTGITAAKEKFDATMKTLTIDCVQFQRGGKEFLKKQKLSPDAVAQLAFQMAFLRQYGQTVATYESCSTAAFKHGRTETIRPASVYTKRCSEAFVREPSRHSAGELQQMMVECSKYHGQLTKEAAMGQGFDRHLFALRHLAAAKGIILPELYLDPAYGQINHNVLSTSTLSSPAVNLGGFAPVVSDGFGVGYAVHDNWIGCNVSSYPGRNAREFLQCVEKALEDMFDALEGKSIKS

[4] = target: T3, Carnitine O-palmitoyltransferase 2, mitochondrial (Rattus norvegicus, UniProt P18886); test: as §1
T3 sequence (P18886 whole entry): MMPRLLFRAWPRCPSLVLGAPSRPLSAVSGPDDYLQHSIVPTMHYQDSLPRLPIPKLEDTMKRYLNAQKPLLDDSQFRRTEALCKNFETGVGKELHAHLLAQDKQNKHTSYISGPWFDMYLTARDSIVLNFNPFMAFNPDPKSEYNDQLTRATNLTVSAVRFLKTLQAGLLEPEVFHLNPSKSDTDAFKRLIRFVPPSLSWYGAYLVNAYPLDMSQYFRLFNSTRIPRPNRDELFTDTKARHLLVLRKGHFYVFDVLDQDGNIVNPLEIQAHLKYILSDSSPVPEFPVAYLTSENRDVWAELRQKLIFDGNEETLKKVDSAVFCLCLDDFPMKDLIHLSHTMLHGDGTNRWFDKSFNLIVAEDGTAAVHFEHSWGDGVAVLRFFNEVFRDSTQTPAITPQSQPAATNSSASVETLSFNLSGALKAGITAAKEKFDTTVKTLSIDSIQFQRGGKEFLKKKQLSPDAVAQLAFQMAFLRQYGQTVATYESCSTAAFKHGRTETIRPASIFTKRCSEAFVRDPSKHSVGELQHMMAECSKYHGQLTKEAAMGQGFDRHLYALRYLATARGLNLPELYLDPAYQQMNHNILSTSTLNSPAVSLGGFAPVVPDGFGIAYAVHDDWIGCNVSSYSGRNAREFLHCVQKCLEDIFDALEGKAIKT

[5] = target: T4, Carnitine O-palmitoyltransferase 1, liver isoform (Rattus norvegicus, UniProt P32198); test: (§2) SUPPLEMENTARY: Inhibition of Carnitine palmitoyltransferase 1, liver isoform
T4 sequence (P32198 whole entry): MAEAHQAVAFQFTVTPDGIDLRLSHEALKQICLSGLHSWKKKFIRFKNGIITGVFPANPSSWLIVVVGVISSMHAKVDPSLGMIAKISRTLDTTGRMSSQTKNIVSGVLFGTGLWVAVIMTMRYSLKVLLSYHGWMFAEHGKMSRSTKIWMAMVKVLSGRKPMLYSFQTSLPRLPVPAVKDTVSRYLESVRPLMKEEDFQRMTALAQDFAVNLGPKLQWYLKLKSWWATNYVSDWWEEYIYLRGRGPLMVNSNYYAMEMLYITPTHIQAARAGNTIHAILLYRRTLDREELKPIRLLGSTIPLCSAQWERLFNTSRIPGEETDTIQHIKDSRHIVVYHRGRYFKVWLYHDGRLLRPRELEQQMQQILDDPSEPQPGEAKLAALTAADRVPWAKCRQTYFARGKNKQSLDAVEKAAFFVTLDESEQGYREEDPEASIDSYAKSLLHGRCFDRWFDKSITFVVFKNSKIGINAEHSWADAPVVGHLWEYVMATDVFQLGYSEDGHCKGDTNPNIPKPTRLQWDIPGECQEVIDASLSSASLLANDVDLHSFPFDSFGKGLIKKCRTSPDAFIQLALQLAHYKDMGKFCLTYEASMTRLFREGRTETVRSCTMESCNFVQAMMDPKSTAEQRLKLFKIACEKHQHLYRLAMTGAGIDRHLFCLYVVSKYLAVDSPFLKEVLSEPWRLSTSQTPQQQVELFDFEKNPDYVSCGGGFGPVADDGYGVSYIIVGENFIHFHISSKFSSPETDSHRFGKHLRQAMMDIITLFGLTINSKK

[6] = target: T5, Carnitine O-palmitoyltransferase 1, liver isoform (Homo sapiens, UniProt P50416); test: as §2
T5 sequence (P50416 whole entry): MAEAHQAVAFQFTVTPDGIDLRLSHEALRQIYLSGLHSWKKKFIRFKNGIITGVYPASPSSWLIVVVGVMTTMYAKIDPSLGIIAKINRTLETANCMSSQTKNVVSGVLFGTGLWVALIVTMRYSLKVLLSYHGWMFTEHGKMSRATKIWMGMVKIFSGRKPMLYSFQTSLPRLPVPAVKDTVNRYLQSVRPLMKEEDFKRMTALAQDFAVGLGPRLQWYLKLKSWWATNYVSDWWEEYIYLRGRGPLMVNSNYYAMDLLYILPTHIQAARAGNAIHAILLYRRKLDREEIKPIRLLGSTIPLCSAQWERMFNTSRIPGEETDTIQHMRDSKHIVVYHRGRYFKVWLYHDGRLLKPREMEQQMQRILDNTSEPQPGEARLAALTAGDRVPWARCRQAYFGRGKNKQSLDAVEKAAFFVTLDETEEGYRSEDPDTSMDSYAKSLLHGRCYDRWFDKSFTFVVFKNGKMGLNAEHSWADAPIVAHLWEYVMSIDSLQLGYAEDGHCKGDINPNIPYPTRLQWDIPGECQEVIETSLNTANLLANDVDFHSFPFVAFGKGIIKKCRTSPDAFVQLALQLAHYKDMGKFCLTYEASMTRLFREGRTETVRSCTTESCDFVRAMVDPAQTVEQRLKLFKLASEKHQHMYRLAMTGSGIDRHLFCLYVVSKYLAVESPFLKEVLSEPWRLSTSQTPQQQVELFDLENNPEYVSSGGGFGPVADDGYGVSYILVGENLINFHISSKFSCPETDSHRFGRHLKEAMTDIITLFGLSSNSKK

[7] = SUPPLEMENTARY: Lyophilisation Solubility Assay (LYSA); format: physicochemical; conditions: read-out: Kinetic_solubility
[8] = SUPPLEMENTARY: PAMPA permeability assay; format: physicochemical; conditions: read-out: Permeability

Row | IC50 [1] | logD [2] | IC50 [3] | IC50 [4] | IC50 [5] | IC50 [6] | solubility kinetic [7] | Papp [8] | Compound
1 | 5460 nM | 2.58 | 326 nM | 345 nM | 56 nM | 77.5 nM | 13 µg/mL (≈ 26 µM) | 2.01 ×10⁻⁶ cm/s | COc1ccc(Cl)cc1S(=O)(=O)N1CCc2c(C)cc(C(=O)Nc3ccc(C(=O)O)cc3)cc21
2 | 38600 nM | 0.32 | 3450 nM | 16600 nM | 105 nM | 59.7 nM | 60 µg/mL (≈ 119 µM) | 2.16 ×10⁻⁶ cm/s | COc1ccc(Cl)cc1S(=O)(=O)N1COCc2ccc(C(=O)Nc3ccc(C(=O)O)cc3)cc21
3 | 2610 nM | 3.15 | 578 nM | 28200 nM | 49.4 nM | 77 nM | 1 µg/mL (≈ 1.86 µM) | 2.19 ×10⁻⁶ cm/s | COc1ccc(Cl)cc1S(=O)(=O)N1CCOc2c(Cl)cc(C(=O)Nc3ccc(C(=O)O)cc3)cc21
4 | > 100000 nM | 2.38 | 1990 nM | 2670 nM | 66.6 nM | 87.8 nM | 242 µg/mL (≈ 487 µM) | 3.16 ×10⁻⁶ cm/s | CN1CCN(c2cc3c(cc2Cl)CN(C(=O)[C@H]2CCCCN2C(=O)COc2ccccc2)C3)CC1
5 | 2400 nM | 3.19 | > 100000 nM | > 100000 nM | 41.8 nM | 54.6 nM | 51 µg/mL (≈ 102 µM) | 1.69 ×10⁻⁶ cm/s | COc1ccc(C)cc1S(=O)(=O)N1CCCc2ccc(C(=O)Nc3nc(CC(=O)O)cs3)cc21
6 | 531 nM | 2.37 | > 100000 nM | > 100000 nM | 32 nM | 16.7 nM | 5 µg/mL (≈ 10.6 µM) | 2.22 ×10⁻⁶ cm/s | Cc1cc(C)cc(S(=O)(=O)N2CCc3ccc(C(=O)Nc4nc(CC(=O)O)cs4)cc32)c1
7 | 4050 nM | 0.58 | 20700 nM | 29000 nM | 249 nM | 219 nM | > 710 µg/mL | 2.54 ×10⁻⁶ cm/s | COc1ccc(Cl)cc1S(=O)(=O)N(C)c1cc(C(=O)Nc2ccc(C(=O)O)cc2)cc2c1OCCO2
8 | > 100000 nM | 2.64 | 29100 nM | > 100000 nM | 308 nM | 99.3 nM | 127 µg/mL (≈ 292 µM) | 2.98 ×10⁻⁶ cm/s | CC(=O)NCc1cccc(-c2nc([C@H]3CCCCN3C(=O)COc3ccccc3)no2)c1
9 | > 100000 nM | 3.08 | 33400 nM | > 100000 nM | 96.3 nM | 91.2 nM | 11 µg/mL (≈ 25.6 µM) | 2.25 ×10⁻⁶ cm/s | O=C(COc1ccccc1)N1CCCC[C@@H]1c1noc(-c2ccc(-n3cncn3)cc2)n1
10 | 46800 nM | 0.47 | > 100000 nM | > 100000 nM | 54.2 nM | 53.7 nM | 440 µg/mL (≈ 900 µM) | 2.38 ×10⁻⁶ cm/s | COc1ccc(Cl)cc1S(=O)(=O)Nc1cc(C(=O)Nc2ccccc2)ccc1CCC(=O)O
11 | 634 nM | < -1 | > 100000 nM | > 100000 nM | 408 nM | 105 nM | 577 µg/mL (≈ 944 µM) | 0.04 ×10⁻⁶ cm/s | CCOc1ccc(C(=O)Nc2ccc(CC(=O)O)cc2)cc1N(CCS(=O)O)S(=O)(=O)c1cc(Cl)ccc1OC
12 | > 100000 nM | 2.9 | 57300 nM | 85500 nM | 479 nM | 148 nM | 11 µg/mL (≈ 25.7 µM) | 2.24 ×10⁻⁶ cm/s | COC(=O)[C@H]1CCCC[C@@H]1c1nc([C@H]2CCCCN2C(=O)COc2ccccc2)no1
13 | > 100000 nM | 2.68 | > 100000 nM | > 100000 nM | 12.6 nM | 30 nM | 3 µg/mL (≈ 5.44 µM) | 1.9 ×10⁻⁶ cm/s | COc1ccc(Cl)cc1S(=O)(=O)N1CCS(=O)(=O)c2ccc(C(=O)Nc3ccc(C(=O)O)cc3)cc21
14 | > 100000 nM | 1.14 | > 100000 nM | > 100000 nM | 1560 nM | 140 nM | > 505 µg/mL | 3.03 ×10⁻⁶ cm/s | Cc1ncc(-c2noc([C@H]3CCCCN3C(=O)COc3ccccc3)n2)c(=O)[nH]1
